Source: ChEMBL document CHEMBL1795317, “Synthesis and antitubercular evaluation of amidoalkyl dibenzofuranols and 1H-benzo[2,3]benzofuro[4,5-e][1,3]oxazin-3(2H)-ones” (Bioorg Med Chem Lett, 2011)
≈ marks a conversion by molar mass, not a printed value.

Assays:
[1] = tested on: Mycobacterium tuberculosis; test: Antimicrobial activity against Mycobacterium tuberculosis H37Rv ATCC 27294 after 28 days by agar dilution method; type: functional; details: H37Rv ATCC 27294, 672 h
[2] = Lipophilicity, log P of the compound; type: physicochemical; details: octanol/water

Structure (SMILES)	MIC [1]	logP [2]
CC(=O)NC(c1ccccc1)c1c(O)ccc2oc3ccccc3c12 (stereo not given)	6.25 µg/mL (≈ 18.9 µM)	3
CC(=O)NC(c1ccc(Cl)cc1)c1c(O)ccc2oc3ccccc3c12 (stereo not given)	6.25 µg/mL (≈ 17.1 µM)	3.56
CC(=O)NC(c1ccc(Br)cc1)c1c(O)ccc2oc3ccccc3c12 (stereo not given)	6.25 µg/mL (≈ 15.2 µM)	3.83
COc1ccc(C(NC(C)=O)c2c(O)ccc3oc4ccccc4c23)cc1 (stereo not given)	6.25 µg/mL (≈ 17.3 µM)	2.87
COc1cc(C(NC(C)=O)c2c(O)ccc3oc4ccccc4c23)cc(OC)c1OC (stereo not given)	12.5 µg/mL (≈ 29.7 µM)	2.62
O=C(NC(c1ccc(Cl)cc1)c1c(O)ccc2oc3ccccc3c12)c1ccccc1 (stereo not given)	12.5 µg/mL (≈ 29.2 µM)	5.46
COc1cc(C(NC(=O)c2ccccc2)c2c(O)ccc3oc4ccccc4c23)cc(OC)c1OC (stereo not given)	12.5 µg/mL (≈ 25.9 µM)	4.52
NC(=O)NC(c1ccc(Cl)cc1)c1c(O)ccc2oc3ccccc3c12 (stereo not given)	3.13 µg/mL (≈ 8.53 µM)	3.23
NC(=O)NC(c1ccc(Br)cc1)c1c(O)ccc2oc3ccccc3c12 (stereo not given)	3.13 µg/mL (≈ 7.61 µM)	3.5
COc1ccc(C(NC(N)=O)c2c(O)ccc3oc4ccccc4c23)cc1 (stereo not given)	6.25 µg/mL (≈ 17.2 µM)	2.55
COc1cc(C(NC(N)=O)c2c(O)ccc3oc4ccccc4c23)cc(OC)c1OC (stereo not given)	12.5 µg/mL (≈ 29.6 µM)	2.29
O=C1NC(c2ccccc2)c2c(ccc3oc4ccccc4c23)O1 (stereo not given)	3.13 µg/mL (≈ 9.93 µM)	3.61
O=C1NC(c2ccc(Cl)cc2)c2c(ccc3oc4ccccc4c23)O1 (stereo not given)	1.56 µg/mL (≈ 4.46 µM)	4.16
O=C1NC(c2ccc(Br)cc2)c2c(ccc3oc4ccccc4c23)O1 (stereo not given)	1.56 µg/mL (≈ 3.96 µM)	4.43
COc1ccc(C2NC(=O)Oc3ccc4oc5ccccc5c4c32)cc1 (stereo not given)	6.25 µg/mL (≈ 18.1 µM)	3.48
COc1cc(C2NC(=O)Oc3ccc4oc5ccccc5c4c32)cc(OC)c1OC (stereo not given)	12.5 µg/mL (≈ 30.8 µM)	3.23
CC[C@@H](CO)NCCN[C@@H](CC)CO [ETHAMBUTOL]	3.13 µg/mL (≈ 15.3 µM)	–
NNC(=O)c1ccncc1 [ISONIAZID]	0.1 µg/mL (≈ 0.729 µM)	–
NC(=O)c1cnccn1 [PYRAZINAMIDE]	50 µg/mL (≈ 406 µM)	–
